Results as given in PubChem BioAssay (NCI).
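Five concentrations, 48 hours, 96-well plates. GI50 = concentration required for 50% inhibition of growth. TGI denotes the concentration required for complete inhibition of growth.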

What was measured:
Assay in all cases: NCI anticancer screen, dose series, 48 h
CAKI-1 renal = test system: CAKI-1 renal
SN12C renal = test system: SN12C renal
OVCAR-8 ovarian = test system: OVCAR-8 ovarian
T-47D breast = test system: T-47D breast
PC-3 prostate = test system: PC-3 prostate
ACHN renal = test system: ACHN renal
TK-10 renal = test system: TK-10 renal
SK-MEL-5 melanoma = test system: SK-MEL-5 melanoma
M14 melanoma = test system: M14 melanoma
SF-295 CNS = test system: SF-295 CNS
IGROV1 ovarian = test system: IGROV1 ovarian
DU-145 prostate = test system: DU-145 prostate
SF-539 CNS = test system: SF-539 CNS
K-562 leukemia = test system: K-562 leukemia
HS 578T breast = test system: HS 578T breast
HCC-2998 colon = test system: HCC-2998 colon
MCF7 breast = test system: MCF7 breast
UACC-257 melanoma = test system: UACC-257 melanoma
SR leukemia = test system: SR leukemia
OVCAR-4 ovarian = test system: OVCAR-4 ovarian
UO-31 renal = test system: UO-31 renal
A498 renal = test system: A498 renal
LOX IMVI melanoma = test system: LOX IMVI melanoma
SK-OV-3 ovarian = test system: SK-OV-3 ovarian
HOP-92 NSCLC = test system: HOP-92 NSCLC
U251 CNS = test system: U251 CNS
HCT-116 colon = test system: HCT-116 colon
HCT-15 colon = test system: HCT-15 colon

COc1ccc(C(=O)NCCNc2nccc(-c3c(-c4ccc(F)cc4)nc4sccn34)n2)cc1 was tested, and the TGI (CAKI-1 renal) was 24.5 µM, the GI50 (SN12C renal) was 7.8 µM and the TGI (SN12C renal) was > 100 µM. For the same compound, the GI50 (OVCAR-8 ovarian) was 5.07 µM, the TGI (OVCAR-8 ovarian) was > 100 µM and the GI50 (T-47D breast) was 5.78 µM. For the same compound, the TGI (T-47D breast) was 34 µM, the GI50 (PC-3 prostate) was 10.9 µM and the TGI (PC-3 prostate) was > 100 µM. The GI50 (ACHN renal) was 2.67 µM, the TGI (ACHN renal) was > 100 µM and the GI50 (TK-10 renal) was 16.1 µM. The TGI (TK-10 renal) was > 100 µM, the GI50 (SK-MEL-5 melanoma) was 3.01 µM and the TGI (SK-MEL-5 melanoma) was 15.7 µM. The GI50 (M14 melanoma) was 6.45 µM, the TGI (M14 melanoma) was 30.9 µM and the GI50 (SF-295 CNS) was 2.73 µM. The TGI (SF-295 CNS) was 15.1 µM, the GI50 (IGROV1 ovarian) was 2.53 µM and the TGI (IGROV1 ovarian) was 15.5 µM. For the same compound, the GI50 (DU-145 prostate) was 1.04 µM, the TGI (DU-145 prostate) was 18.9 µM and the GI50 (SF-539 CNS) was 16.3 µM. The TGI (SF-539 CNS) was > 100 µM, the GI50 (K-562 leukemia) was 4.81 µM and the TGI (K-562 leukemia) was > 100 µM. The GI50 (HS 578T breast) was 6.12 µM, the TGI (HS 578T breast) was 72.3 µM and the GI50 (HCC-2998 colon) was 9.72 µM. For the same compound, the TGI (HCC-2998 colon) was > 100 µM, the GI50 (MCF7 breast) was 2 µM and the TGI (MCF7 breast) was 36.2 µM. It also gave a GI50 (UACC-257 melanoma) of 13.9 µM, a TGI (UACC-257 melanoma) of 68.8 µM and a GI50 (SR leukemia) of 5.93 µM. The TGI (SR leukemia) was 49.1 µM, the GI50 (OVCAR-4 ovarian) was 10.5 µM and the TGI (OVCAR-4 ovarian) was 84 µM. It also gave a GI50 (UO-31 renal) of 1.42 µM, a TGI (UO-31 renal) of 16.5 µM and a GI50 (A498 renal) of 2.07 µM. For the same compound, the TGI (A498 renal) was 55 µM, the GI50 (LOX IMVI melanoma) was 4.67 µM and the TGI (LOX IMVI melanoma) was > 100 µM. The GI50 (SK-OV-3 ovarian) was 13.7 µM, the TGI (SK-OV-3 ovarian) was > 100 µM and the GI50 (HOP-92 NSCLC) was 13.4 µM. For the same compound, the TGI (HOP-92 NSCLC) was > 100 µM, the GI50 (U251 CNS) was 4.47 µM and the TGI (U251 CNS) was > 100 µM. For the same compound, the GI50 (HCT-116 colon) was 3.95 µM, the TGI (HCT-116 colon) was 19.8 µM and the GI50 (HCT-15 colon) was 4.09 µM. For the same compound, the TGI (HCT-15 colon) was > 100 µM.
